Assay results as given in ChEMBL document CHEMBL1157437, “Synthesis and biological activities of reveromycin A and spirofungin A derivatives” (Bioorg Med Chem Lett, 2008).

Key:
[1] = target: T1, Isoleucine--tRNA ligase, cytoplasmic (Homo sapiens, UniProt P41252); test: Inhibition of IleRS
T1 sequence (P41252 whole entry): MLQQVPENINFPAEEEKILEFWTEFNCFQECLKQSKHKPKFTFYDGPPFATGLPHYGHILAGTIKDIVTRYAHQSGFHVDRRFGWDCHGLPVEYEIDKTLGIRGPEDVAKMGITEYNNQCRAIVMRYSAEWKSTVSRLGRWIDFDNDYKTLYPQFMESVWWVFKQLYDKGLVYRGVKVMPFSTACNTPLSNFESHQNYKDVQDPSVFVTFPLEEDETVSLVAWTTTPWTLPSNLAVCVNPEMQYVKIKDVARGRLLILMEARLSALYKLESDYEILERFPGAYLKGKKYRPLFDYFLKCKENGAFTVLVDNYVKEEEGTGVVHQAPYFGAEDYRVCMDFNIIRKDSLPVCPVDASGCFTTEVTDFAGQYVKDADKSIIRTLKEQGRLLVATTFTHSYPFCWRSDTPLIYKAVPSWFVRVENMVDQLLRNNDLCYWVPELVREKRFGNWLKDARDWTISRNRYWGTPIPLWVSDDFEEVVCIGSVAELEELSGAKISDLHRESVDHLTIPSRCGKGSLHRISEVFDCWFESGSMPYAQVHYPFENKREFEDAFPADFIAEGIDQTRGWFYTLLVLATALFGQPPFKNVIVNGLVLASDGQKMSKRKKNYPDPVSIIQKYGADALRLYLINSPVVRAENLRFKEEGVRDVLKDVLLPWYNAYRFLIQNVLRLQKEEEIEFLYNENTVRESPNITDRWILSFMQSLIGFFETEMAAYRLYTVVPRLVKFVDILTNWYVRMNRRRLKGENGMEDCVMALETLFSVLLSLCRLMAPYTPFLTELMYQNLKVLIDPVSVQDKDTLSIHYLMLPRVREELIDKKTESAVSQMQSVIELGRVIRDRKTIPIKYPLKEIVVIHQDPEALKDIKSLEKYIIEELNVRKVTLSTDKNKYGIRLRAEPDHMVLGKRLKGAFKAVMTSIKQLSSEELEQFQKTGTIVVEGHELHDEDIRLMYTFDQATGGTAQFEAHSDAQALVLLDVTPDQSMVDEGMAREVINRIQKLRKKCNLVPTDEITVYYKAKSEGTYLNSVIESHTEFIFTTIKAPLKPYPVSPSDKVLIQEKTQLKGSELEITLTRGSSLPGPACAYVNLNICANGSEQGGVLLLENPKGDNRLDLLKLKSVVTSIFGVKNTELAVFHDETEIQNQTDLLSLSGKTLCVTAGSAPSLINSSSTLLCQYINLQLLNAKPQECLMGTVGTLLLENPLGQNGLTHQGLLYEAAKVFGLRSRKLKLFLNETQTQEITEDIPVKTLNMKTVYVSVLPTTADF

[2] = test system: NRK; test: Effect on morphological reversion in src transformed NRK cells at 100 ug/mL; assay type: functional; conditions: Rattus norvegicus
[3] = test system: NRK; test: Effect on morphological reversion in src transformed NRK cells at 30 ug/mL; assay type: functional; conditions: Rattus norvegicus
[4] = test system: NRK; test: Effect on morphological reversion in src transformed NRK cells at 10 ug/mL; assay type: functional; conditions: Rattus norvegicus
[5] = test system: NRK; test: Effect on morphological reversion in src transformed NRK cells at 3 ug/mL; assay type: functional; conditions: Rattus norvegicus
[6] = test system: Osteoclast; test: Induction of apoptosis in mouse osteoclasts; assay type: functional
[7] = test system: NRK; test: Effect on morphological reversion in src transformed NRK cells at 1 ug/mL; assay type: functional; conditions: Rattus norvegicus

Compound	IC50 [1]	inhibition at 100 µg/mL [2]	inhibition at 30 µg/mL [3]	inhibition at 10 µg/mL [4]	inhibition at 3 µg/mL [5]	Activity [6]	inhibition at 1 µg/mL [7]
CCCC[C@@]1(OC(=O)CCC(=O)O)CC[C@]2(CC[C@H](C)[C@@H](C/C=C(C)/C=C/[C@@H](O)[C@@H](C)/C=C/C(=O)O)O2)O[C@H]1/C=C/C(C)=C/C(=O)O [5-EPIREVEROMYCIN A]	572 nM	< 10%	< 10%	< 10%	< 10%	21.5 µg/mL	–
CCCC[C@@]1(OC(=O)CCC(=O)O)CC[C@]2(CC[C@H](C)[C@@H](CCO)O2)O[C@H]1/C=C/C(C)=C/C(=O)O	> 2010 nM	< 10%	< 10%	< 10%	< 10%	–	–
CCCC[C@@]1(OC(=O)CCC(=O)O)CC[C@]2(CC[C@H](C)[C@@H](C/C=C(C)/C=C/[C@H](O)[C@@H](C)CCC(=O)O)O2)O[C@H]1/C=C/C(C)=C/C(=O)O [2,3-DIHYDROREVEROMYCIN A]	17.5 nM	> 80%	50%	20%	10%	0.22 µg/mL	–
CCCC[C@@]1(OCSC)CC[C@]2(CC[C@H](C)[C@@H](C/C=C(C)/C=C/[C@H](O)[C@@H](C)/C=C/C(=O)O)O2)O[C@H]1/C=C/C(C)=C/C(=O)O	801 nM	> 80%	20%	< 10%	–	9.6 µg/mL	–
CCCC[C@@]1(OC(=O)CCC(=O)O)CC[C@]2(CC[C@H](C)[C@@H](C/C=C(\C)CO)O2)O[C@H]1/C=C/C(C)=C/C(=O)O	> 1860 nM	< 10%	< 10%	< 10%	< 10%	–	–
CCCC[C@@]1(OC(=O)CCC(=O)O)CC[C@]2(CC[C@H](C)[C@@H](C/C=C(C)/C=C/[C@H](O)[C@@H](C)/C=C/C(=O)OC)O2)O[C@H]1/C=C/C(C)=C/C(=O)O	313 nM	> 80%	> 80%	> 80%	20%	2 µg/mL	< 10%
CCCC[C@@]1(OC(=O)CCC(=O)O)CC[C@]2(CC[C@H](C)[C@@H](C/C=C(C)/C=C/[C@@H](O)[C@@H](C)CCC(=O)O)O2)O[C@H]1/C=C/C(C)=C/C(=O)O [2,3-DIHYDRO-5-EPIREVEROMYCIN A]	88 nM	50%	< 10%	< 10%	< 10%	0.82 µg/mL	–
CCCC[C@]1([C@H](/C=C/C(C)=C/C(=O)O)OC(=O)CCC(=O)O)CC[C@]2(CC[C@H](C)[C@@H](C/C=C(C)/C=C/[C@H](O)[C@@H](C)/C=C/C(=O)O)O2)O1 [REVEROMYCIN B]	> 1510 nM	< 10%	–	–	< 10%	>15 µg/mL	–
CCCC[C@@]1(OC(=O)CCC(=O)O)CC[C@]2(CC[C@H](C)[C@@H](C/C=C(C)/C=C/C(=O)O)O2)O[C@H]1/C=C/C(C)=C/C(=O)O	> 1730 nM	< 10%	< 10%	< 10%	< 10%	–	–
CCCC[C@@]1(OC(=O)CCC(=O)O)CC[C@]2(CC[C@H](C)[C@@H](C/C=C(C)/C=C/[C@H](OC(C)=O)[C@@H](C)/C=C/C(=O)O)O2)O[C@H]1/C=C/C(C)=C/C(=O)O	> 1420 nM	> 80%	> 80%	50%	< 10%	0.46 µg/mL	< 10%
CCCC[C@@]1(O)CC[C@]2(CC[C@H](C)[C@@H](C/C=C(C)/C=C/[C@H](O)[C@@H](C)/C=C/C(=O)O)O2)O[C@H]1/C=C/C(C)=C/C(=O)O	169 nM	< 10%	–	–	–	11.5 µg/mL	–
CCCC[C@@]1(OC(=O)CCC(=O)O)CC[C@]2(CC[C@H](C)[C@@H](C/C=C(C)/C=C/[C@H](O[Si](C)(C)C(C)(C)C)[C@@H](C)/C=C/C(=O)O)O2)O[C@H]1/C=C/C(C)=C/C(=O)O	> 1290 nM	< 10%	–	–	–	5.9 µg/mL	–
CCCC[C@@]1(OC)CC[C@]2(CC[C@H](C)[C@@H](C/C=C(C)/C=C/[C@H](O)[C@@H](C)/C=C/C(=O)O)O2)O[C@H]1/C=C/C(C)=C/C(=O)O	101 nM	> 80%	> 80%	20%	–	–	–
CCCC[C@@]1(OC(=O)CCC(=O)OC)CC[C@]2(CC[C@H](C)[C@@H](C/C=C(C)/C=C/[C@H](O)[C@@H](C)/C=C/C(=O)O)O2)O[C@H]1/C=C/C(C)=C/C(=O)O	434 nM	> 80%	> 80%	> 80%	> 80%	2.5 µg/mL	10%
CC(/C=C/[C@H](O)[C@@H](C)/C=C/C(=O)O)=C\C[C@H]1O[C@@]2(CC[C@H](C)[C@H](/C=C/C(C)=C/C(=O)O)O2)CC[C@@H]1C [SPIROFUNGIN A]	1120 nM	> 80%	20%	10%	< 10%	>30 µg/mL	–
CCCC[C@@]1(OC(=O)CCC(=O)O)CC[C@]2(CC[C@H](C)[C@@H](C/C=C(\C)COC(=O)CCC(=O)O)O2)O[C@H]1/C=C/C(C)=C/C(=O)O	> 1570 nM	< 10%	< 10%	< 10%	< 10%	>15 µg/mL	–
CCCC[C@@]1(OC(=O)CCC(=O)O)CC[C@]2(CC[C@H](C)[C@@H](C/C=C(C)/C=C/CO)O2)O[C@H]1/C=C/C(C)=C/C(=O)O	996 nM	< 10%	< 10%	< 10%	< 10%	–	–
CCCC[C@@]1(OC(=O)CCC(=O)O)CC[C@]2(CC[C@H](C)[C@@H](C/C=C(C)/C=C/[C@H](OC)[C@@H](C)/C=C/C(=O)O)O2)O[C@H]1/C=C/C(C)=C/C(=O)O	554 nM	< 10%	–	–	< 10%	>15 µg/mL	–
CC(/C=C/[C@H](O)[C@@H](C)/C=C/C(=O)O)=C\C[C@H]1O[C@]2(CC[C@H](C)[C@H](/C=C/C(C)=C/C(=O)O)O2)CC[C@@H]1C [SPIROFUNGIN B]	> 1990 nM	< 10%	< 10%	< 10%	< 10%	>30 µg/mL	–
